Assay results: PMC11071649, “Synthesis and Selective Anticancer Activity Evaluation of 2-phenylacrylonitrile Derivatives as Tubulin Inhibitors” (Current Medicinal Chemistry, 2024)
Entries after “also recorded” stand apart in the source; their conditions may differ. Like-named read-outs stand apart in the source and are kept apart here. Marks after values point to notes of the source that are not given here.

Legend:
[1] = system: BEL-7402 liver cancer cell; experiment: MTT anti-proliferative assay, BEL-7402; format: cell-based, human; conditions: for IC50: Homo sapiens, Bel-7402, MTT, 48 h
How it was run: (§1)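 Human cell lines were obtained from ATCC and cultured in DMEM with FBS. Cells were plated in 96-well plates, exposed to compounds and assessed by MTT read-out. Activity was expressed as inhibition of net cell growth.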

[2] = system: Raji B lymphoblastoid cell; experiment: MTT anti-proliferative assay, Raji; format: cell-based, human; conditions: for IC50: Homo sapiens, Raji
How it was run: as §1

[3] = system: diffuse large B-cell lymphoma SU-DHL-10 cell; experiment: MTT anti-proliferative assay, SU-DHL-10; format: cell-based, human; conditions: for IC50: Homo sapiens, SU-DHL10
How it was run: as §1

[4] = system: MCF-7 breast cancer cell; experiment: MTT anti-proliferative assay, MCF-7; format: cell-based, human; conditions: for IC50: Homo sapiens, MCF7, MTT, 48 h
How it was run: as §1

[5] = system: SGC-7901 early differentiation gastric cancer cell; experiment: MTT anti-proliferative assay, SGC-7901; format: cell-based, human; conditions: for IC50: Homo sapiens, SGC-7901, MTT, 48 h
How it was run: as §1

[6] = system: HeLa cancer cells; parameters: method as in PMID 27887843; conditions: Fig. 1; cited from earlier work
[7] = system: AGS gastric cancer cell; experiment: MTT anti-proliferative assay, AGS; format: cell-based, human; conditions: for IC50: Homo sapiens, MTT, 48 h
How it was run: as §1

[8] = system: HeLa cervical cancer cell; experiment: MTT anti-proliferative assay, HeLa; format: cell-based, human; conditions: for IC50: Homo sapiens, HeLa, MTT, 48 h
How it was run: as §1

[9] = system: L-02 normal liver cell; experiment: MTT assay, L-02 normal cells; format: cell-based, human; conditions: Homo sapiens, 48 h
How it was run: as §1

[10] = system: MGC-803 late stage differentiation gastric cancer cell; experiment: MTT anti-proliferative assay, MGC-803; format: cell-based, human; conditions: for IC50: Homo sapiens, MGC-803, MTT, 48 h
How it was run: as §1

[11] = system: HCT116 colectal cancer cell; experiment: MTT anti-proliferative assay, HCT116; format: cell-based, human; conditions: for IC50: Homo sapiens, HCT-116, MTT, 48 h
How it was run: as §1

[12] = system: HepG2 hepatoma cell; experiment: MTT anti-proliferative assay, HepG2; format: cell-based, human; conditions: for IC50: Homo sapiens, HepG2, MTT, 48 h, read-out: IC50 HepG-2
How it was run: as §1

[13] = system: A549 lung cancer cell; experiment: MTT anti-proliferative assay, A549; format: cell-based, human; conditions: for IC50: Homo sapiens, A549, MTT, 48 h
How it was run: as §1

[14] = system: MCF-10A normal breast cell; experiment: MTT assay, MCF-10A normal cells; format: cell-based, human; conditions: Homo sapiens, MCF-10A, 48 h
How it was run: as §1

[15] = system: L-02 normal cells; parameters: method as in PMID 27887843, PMID 29516624, PMID 30244610; conditions: Fig. 1; cited from earlier work
[16] = system: MGC-803 cancer cells; parameters: method as in PMID 29516624, PMID 30244610; conditions: Fig. 1; cited from earlier work
[17] = system: L-02 cells; experiment: Apoptosis by flow cytometry (annexin V-FITC/PI), L-02; format: cell-based, human; conditions: 12 h
Experimental: (§2) pH of the solution was adjusted to 2 with HCl solution (1 M), and the precipitate was subsequently collected by suction filtra- […]
(§3) in DMF (40 mL) at 0°C. After 2 h reaction, the mixture was poured into 300 mL ice water and mixed completely. Then adjust […]
(§4) mL) at 0°C, then after 15 min stirring, benzyl chloride (33 mmol) was added. The reaction mixture was moved to RT and al-lowed to continue, after which it was deemed essentially complete by TLC. Then the solution was removed and the mixture […]
(§5) 1.6. Cell lines and cell culture
(§6) MTT was purchased from Sigma-Aldrich Co. (St. Louis, MO, USA). The PI and Annexin V-FITC apoptosis detection kit were purchased from Invitrogen (Eugene, OR, USA). All human cell lines were used in this study. […]
(§7) the anti-proliferative activities were determined by MTT assay. […]
(§8) respectively. […] After 12 h, the cell detached, fixed, and analyzed the cell cycle by flow cytometry using a FACS Calibur flow cytometer with Cell Quest software (Becton-Dickinson, Franklin Lakes, NJ). […]
(§9) Apoptosis was detected using an apoptosis detecti5 on kit. […]
(§10) Vehicle group was treated with 0.1% DMSO. Following 12 h of incubation, cells were analyzed for apoptosis as previously described method, using a FACS Calibur flow cytometer with Cell Quest software (Becton-Dickinson, Franklin Lakes, NJ). […]
(§11) Quantitative cell migration was performed using 24-well Boyden chambers (Corning, NY, USA) as described. […]

[18] = system: HCT116 cells; experiment: Apoptosis by flow cytometry (annexin V-FITC/PI), HCT116; format: cell-based, human; conditions: 0.1 μM, 12 h
Experimental: as §2, §3, §4, §5, §6, §7, §8, §9, §10, §11

[19] = molecular target: T1, Human β-tubulin (TUBB) (Homo sapiens, UniProt P07437+P68363); experiment: Tubulin polymerization inhibition, ELISA kit, HCT-116 cells; conditions: HCT-116, read-out: Tubulin % inhibition
T1 sequence (P07437 whole entry): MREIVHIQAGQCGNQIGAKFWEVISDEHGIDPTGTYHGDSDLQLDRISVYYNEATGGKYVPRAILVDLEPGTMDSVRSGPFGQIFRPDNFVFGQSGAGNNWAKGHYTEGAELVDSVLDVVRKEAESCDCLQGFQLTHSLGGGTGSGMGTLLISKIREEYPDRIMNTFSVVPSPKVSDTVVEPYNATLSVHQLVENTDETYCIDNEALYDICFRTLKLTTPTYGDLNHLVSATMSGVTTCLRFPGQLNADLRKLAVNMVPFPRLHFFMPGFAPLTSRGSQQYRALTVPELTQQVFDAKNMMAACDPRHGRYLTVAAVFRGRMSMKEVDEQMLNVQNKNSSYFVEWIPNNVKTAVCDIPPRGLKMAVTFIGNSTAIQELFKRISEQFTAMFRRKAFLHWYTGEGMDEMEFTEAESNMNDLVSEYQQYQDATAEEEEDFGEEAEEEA
T1 sequence (P68363 whole entry): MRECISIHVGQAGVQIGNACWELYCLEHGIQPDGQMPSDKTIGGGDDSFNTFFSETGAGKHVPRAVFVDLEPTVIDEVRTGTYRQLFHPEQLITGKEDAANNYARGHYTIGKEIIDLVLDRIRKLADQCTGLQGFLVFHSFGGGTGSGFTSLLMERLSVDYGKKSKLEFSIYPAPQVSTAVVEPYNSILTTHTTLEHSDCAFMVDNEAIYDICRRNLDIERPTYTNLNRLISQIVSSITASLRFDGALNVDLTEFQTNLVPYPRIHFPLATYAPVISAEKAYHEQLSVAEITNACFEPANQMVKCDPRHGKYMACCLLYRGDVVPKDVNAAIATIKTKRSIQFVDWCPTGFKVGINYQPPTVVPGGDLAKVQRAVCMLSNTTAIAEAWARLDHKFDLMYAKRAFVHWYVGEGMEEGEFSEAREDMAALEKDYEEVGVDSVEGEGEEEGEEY

[20] = system: L-02 cells; experiment: Transwell cell migration assay, L-02; format: cell-based, human; conditions: 24 h
Experimental: Aggressive tumors have a strong ability to proliferate and migrate, and in many cases, cell mobility affects cell proliferation. […]
as §2, §3, §4, §5
MTT was purchased from Sigma-Aldrich Co. (St. Louis, MO, USA). […]
as §7, §8, §9, §10, §11

[21] = system: HCT116 colon cancer xenograft; experiment: In vivo antitumor activity, colon cancer xenograft; parameters: species or system Nu/Nu nude mice
[22] = molecular target: T1, Human β-tubulin (TUBB); experiment: Tubulin polymerization inhibition, ELISA kit, BEL-7402 cells; conditions: Bel-7402, read-out: Tubulin % inhibition
[23] = MTT, 48 h, read-out: IC50 SU-DHL-10

Structure (SMILES) | IC50 [1] [µM] | IC50 ([2]; MTT, 48 h, read-out: IC50 Raji) [µM] | IC50 [3, 23] [µM] | IC50 [4] [µM] | IC50 [5] [µM] | IC50 [6] [µM] | IC50 [7] [µM] | IC50 [8] [µM] | IC50 [9] [µM] | IC50 [10] [µM] | IC50 [11] [µM] | IC50 [12] [µM] | IC50 [13] [µM] | IC50 [14] [µM] | SI (selectivity index), IC50 (L-02)/IC50 (Raji) [2] | IC50 [15] [µM] | IC50 [16] [µM] | SI (selectivity index), IC50 (L-02)/IC50 (HCT-116) [11] | melting point [°C] | further results
Oc1ccc(/C=C/c2cc(O)cc(O)c2)cc1 [Resveratrol, resveratrol, reference compound] | 42.5 ± 5.4 | > 100 | > 100 | 72.4 ± 9.9 | > 100 | 120 | > 100 | > 100 | 12.8 ± 0.2 | > 100 | 16.7 ± 3.6 | > 100 | > 100 | > 100 | – | – | – | – | – | –
COc1ccc(/C=C\c2cc(OC)c(OC)c(OC)c2)cc1O [CA-4, combretastatin A-4, reference compound] | 2 ± 0.03 | 0.18 ± 0.001 | 1.1 ± 0.1 | 0.2 ± 0.1 | 0.3 ± 0.001 | – | 3.4 ± 0.01 | > 100 | 1.1 ± 0.03 | 0.06 ± 0.02 | 0.16 ± 0.001 | > 100 | > 100 | 3.2 ± 1.2 | > 5.8^c | 1.1 ± 0.03 | 0.06 ± 0.01 | > 6.8^c | – | SI (selectivity index), IC50 (MCF-10A)/IC50 (MCF-7) [4]: > 14.6^d; SI (selectivity index), IC50 (L-02)/IC50 (SGC-7901) [5]: > 3.6^c; SI (selectivity index), IC50 (L-02)/IC50 (MGC-803) [10]: > 18.3^c
CC(=O)O[C@H]1C(=O)[C@@]2(C)[C@H]([C@H](OC(=O)c3ccccc3)[C@]3(O)C[C@H](OC(=O)[C@H](O)[C@@H](NC(=O)c4ccccc4)c4ccccc4)C(C)=C1C3(C)C)[C@]1(OC(C)=O)CO[C@@H]1C[C@@H]2O [Taxol, Paclitaxel, reference compound] | 0.09 ± 0.02 | 0.26 ± 0.02 | 0.18 ± 0.03 | 0.08 ± 0.01 | > 100 | 13 | 0.02 ± 0.01 | 12.9 ± 0.4 | > 100 | 0.06 ± 0.01 | 0.03 ± 0.01 | 0.9 ± 0.03 | 0.4 ± 0.02 | 0.18 ± 0.02 | > 384^c | > 100 | 0.06 ± 0.01 | > 3333^c | – | SI (selectivity index), IC50 (L-02)/IC50 (BEL-7402) [1]: > 1111^c; apoptosis in normal L-02 cells [17]: almost no apoptosis; percentage of total apoptotic (early and late stage) HCT116 cells [18]: 26.8%; SI (selectivity index), IC50 (L-02)/IC50 (SU-DHL-10) [3]: > 555^c; SI (selectivity index), IC50 (MCF-10A)/IC50 (MCF-7) [4]: > 2.2^d; inhibition at 0.01 µM [19]: 19.1 ± 6.27%; inhibition at 0.1 µM [19]: 36.5 ± 6.07%; inhibition at 1 µM [19]: 46 ± 4.89%; SI (selectivity index), IC50 (L-02)/IC50 (AGS) [7]: > 5000^c; SI (selectivity index), IC50 (L-02)/IC50 (HeLa) [8]: > 7.7^c; migration of normal L-02 cells [20]: almost no migration; SI (selectivity index), IC50 (L-02)/IC50 (HepG-2) [12]: > 106^c; SI (selectivity index), IC50 (L-02)/IC50 (A549) [13]: > 227^c; mouse body weight ([21]; 25 mg/kg/day, xenograft mice): decreased significantly; average volume and weight of the tumor versus control group ([21]; 1g2a 12.5, 25, 50 mg/kg, taxol 25 mg/kg, from day 10): significantly lower; also recorded: inhibited the growth of tumors; inhibition at 0.01 µM [22]: 15 ± 2.65%; inhibition at 0.1 µM [22]: 20.1 ± 5.34%; inhibition at 1 µM [22]: 29.6 ± 4.88%
N#C/C(=C\c1ccc(/C=C/C(=O)c2ccccc2)cc1)c1ccc(OC(F)(F)F)cc1 [Compound 8b] | > 100 | > 100 | > 100 | > 100 | > 100 | – | > 100 | > 100 | > 100 | > 100 | > 100 | > 100 | > 100 | > 100 | – | – | – | – | 155 to 157 | –
COc1ccc(C(=O)/C=C/c2ccc(/C=C(\C#N)c3ccc(OC(F)(F)F)cc3)cc2)cc1 [Compound 8a] | 13.2 ± 2.7 | 1.2 ± 0.5 | 1.3 ± 0.1 | 17.6 ± 6.5 | > 100 | – | > 100 | > 100 | > 100 | > 100 | 56.3 ± 8.4 | > 100 | > 100 | 11.3 ± 2.3 | – | – | – | – | 148 to 150 | IC50 ([2]; read-out: IC50 Raji cells): ~1 µM; IC50 ([3]; read-out: IC50 SU-DHL-10 cells): ~1 µM
N#C/C(=C\c1ccc(/C=C/C(=O)c2ccc(Br)cc2)cc1)c1ccc(OC(F)(F)F)cc1 [Compound 8d] | > 100 | 3 ± 1 | 7.1 ± 2.6 | 53.1 ± 7.1 | > 100 | – | 31.8 ± 6.1 | > 100 | > 100 | > 100 | 35.3 ± 6.5 | > 100 | > 100 | 37.3 ± 4.3 | > 79.3 | – | – | > 1.7 | 145 to 147 | SI (selectivity index), IC50 (L-02)/IC50 (SU-DHL-10) [3]: > 14.0
COc1cc(/C(C#N)=C/c2ccc(C)cc2)cc(OC)c1OC [Compound 1, (Z)-3-(p-tolyl)-2-(3,4,5-trimethoxyphenyl)acrylonitrile] | – | – | – | – | – | – | – | – | – | – | – | – | – | – | – | > 100 | < 0.01 | – | – | –
COc1cc(OC)cc(/C(C#N)=C/c2ccc(Br)cc2)c1 [Compound 2, (Z)-3-(4-bromophenyl)-2-(3,5-dimethoxyphenyl)acrylonitrile] | – | – | – | – | – | 4.2 | – | – | – | – | – | – | – | – | – | > 100 | – | – | – | –
